This note sets out measurements from US20250136931A1, “AN IMPROVED CELL CULTURE PROCESS FOR PRODUCTION OF PROTEIN” (KASHIV BIOSCIENCES, LLC, priority 2022, published 2025).

Structures are written as SMILES.

Experiment [1] has as its system host cells producing fusion protein (CTLA4Ig). Description: Fed-batch bioreactor (Ambr250) cell culture for fusion protein (CTLA4Ig) production, control process spiked with Mito-TEMPO. Type of experiment: cell-based. As to the method:
The cell bank vial was thawed in Shake flask 125 (SF125) into the seed media and cell counts were checked. The incubation was continued for 3-5 days during which cells reached the optimum cell density for subculture. The cells were subsequently expanded in Shake flask 500 (SF500) to generate sufficient inoculum for Ambr®250 bioreactors (250 mL).
Production Fed batch bioreactor run was executed at Ambr®250 bioreactor using process parameters as mentioned below.
The standard fed-batch culture process involved cell culturing for 12 days and was harvested depending upon the culture cell viability.
When the control process was spiked with antioxidant Mito Tempo (total 25 nM added throughout the culturing period) 5 nM each on day 3, 5, 7, 9, 11. It was observed that the harvested protein titer was improved by 28% when analysed by Protein-A HPLC method. It was also observed that overall oxidation of the product was decreased by 18% when analysed by LC-MS method. The overall peak viable cell density of the culture was also found to have increased by 11%.

Experiment [2] deals with host cells producing antibody. Put plainly: Fed-batch bioreactor (Ambr250) cell culture for antibody production, control process spiked with MitoTempo. Format: cell-based. As to conditions: total 25 nM, 5 nM each on day 3, 5, 7, 9, 11. The protocol:
The cell bank vial is thawed in Shake flask 125 (SF125) into the seed media and cell counts are checked. The incubation is continued for 3-5 days during which cells reached the optimum cell density for subculture. The cells are subsequently expanded in Shake flask 500 (SF500) to generate sufficient inoculum for Ambr®250 bioreactors (250 mL).
Production Fed batch bioreactor run is executed at Ambr®250 bioreactor using process parameters as mentioned below.
The standard fed-batch culture process involved cell culturing for 12 days and it is harvested depending upon the culture cell viability.
When the control process is spiked with antioxidant MitoTempo (total 25 nM added throughout the culturing period) 5 nM each on day 3, 5, 7, 9, 11. It is observed that the harvested protein titer is improved when analysed by Protein-A HPLC method. It is also observed that overall oxidation of the product is decreased when analysed by LC-MS method. The overall peak viable cell density of the culture is also found to have increased.

Setting [3] is: CTLA4Ig culture, total 25 nM, 5 nM each on day 3, 5, 7, 9, 11.
Setting [4] is: CTLA4Ig fed-batch culture, 12 days, 5 nM each on Day 3, 5, 7, 9, 11 (total 25 nM).

For the compound `CC1(C)CC(NC(=O)C[P+](c2ccccc2)(c2ccccc2)c2ccccc2)CC(C)(C)N1[O]` [MitoTempo, Mito-TEMPO], in experiment [1] (setting [3]), the “harvested protein titer improved (Protein-A HPLC) versus control process” value is listed as 28%, the “overall oxidation of the product decreased (LC-MS) versus control process” value stood at 18% and the “overall peak viable cell density increased versus control process” value stood at 11%. In addition, in experiment [1] (setting [4]), the “Harvest Oxidation (%) by LC-MS” value was determined as 12.2%, the “Harvest Titer by Protein-A HPLC” value stood at 2.7 g/L and the “Peak cell density by Automated cell counter” value was 18.8 ×10^6 cells/mL. In experiment [2], the “harvested protein titer (Protein-A HPLC) versus control process” value was “improved”, the “overall oxidation of the product (LC-MS) versus control process” value was “decreased” and the “overall peak viable cell density of the culture versus control process” value is listed as “increased”.
